We go through one compound from patent publication US9428452B2, “Compounds” (Glaxo Group Limited, priority 2012, dated 2016).

Marks after values point to notes of the source that are not given here.

What all share (format): cell-based
Assay [1] concerns IL-17F mRNA expression. In words: Ex-vivo human skin model, IL-17F mRNA expression. As to conditions: for Percentage of inhibition of IL-17F mRNA expression: Th17 cytokine cocktail 24 h, RT-PCR.
The test system of assay [2] is IL-17A mRNA expression. Briefly: Ex-vivo human skin model, IL-17A mRNA expression. The conditions noted are these: for Percentage of inhibition of IL-17A mRNA expression: Th17 cytokine cocktail 24 h, RT-PCR.
Assay [3] deals with IL-22 mRNA expression. Briefly: Ex-vivo human skin model, IL-22 mRNA expression. The conditions noted are these: for Percentage of inhibition of IL-22 mRNA expression: Th17 cytokine cocktail 24 h, RT-PCR.
The mark [4] stands for this setting: four different donors, compound 10 μM.

For the compound `CCc1ccc(N(CC(C)C)S(=O)(=O)c2ccc([C@@H](O)CN3CCOCC3)c(CO)c2)cc1` [Example E126, N-(4-ethylphenyl)-4-(1-hydroxy-2-morpholinoethyl)-3-(hydroxymethyl)-N-isobutylbenzenesulfonamide], the “Percentage of inhibition of IL-17F mRNA expression” value in assay [1] (Skin Donor 1, compound 10 μM) is given as 67% *; in assay [1] (Skin Donor 2, compound 10 μM), 89% *; in assay [1] (Skin Donor 3, compound 10 μM) it was 67% *; in assay [1] (Skin Donor 4, compound 10 μM) it was 74% *. Moreover, in assay [1] (setting [4]), the “gene transcription of il17f (result in words)” value was “inhibited”. Also, the “Percentage of inhibition of IL-17A mRNA expression” value in assay [2] (Skin Donor 1, compound 10 μM) is on record as 76% *; in assay [2] (Skin Donor 2, compound 10 μM) it was 93% *; in assay [2] (Skin Donor 3, compound 10 μM) it was 60% *; in assay [2] (Skin Donor 4, compound 10 μM), 85% *. Besides, in assay [2] (setting [4]), the “gene transcription of il17a (result in words)” value was “inhibited”. The “Percentage of inhibition of IL-22 mRNA expression” value is 67% * in assay [3] (Skin Donor 1, compound 10 μM); 58% in assay [3] (Skin Donor 2, compound 10 μM); 60% in assay [3] (Skin Donor 3, compound 10 μM); 58% * in assay [3] (Skin Donor 4, compound 10 μM). For the same compound, the “gene transcription of il22 (result in words)” value in assay [3] (setting [4]) was “inhibited”.
